Assay results from patent US4242354A, “2-(2-Thenolythio)-propionylglycine: method for its preparation and pharmaceutical formulations containing said compound” (Mediolanum Farmaceutici S.r.L., priority 1978, dated 1980).

Legend:
[1] = Stability test: physical properties and weight variations on heating; type: physicochemical
Description: The stability tests were carried out according to the Rogers' nonisothermic method suitably integrated by the evaluation of physical data, melting point, weight variation, and spectrophotometric assay. For each single compound, the tests were performed on a series of samples, with the weight of 100 milligrams, added for the wet tests with 1 ml of distilled water. […] The sample were kept in a thermostat at increasing temperatures, i.e. from 25° to 80° C. […] The temperature, programmed according to the Rogers' formula, resulted to be 40° C. at the end of the first hour, 50° C. at the end of the second hour, 57° C. at the end of the third hour, 63° C. at the end of the fourth hour, 69° C. at the end of the fifth hour, 73° C. at the end of the sixth hour, 77° C. at the end of the seventh hour and, as already specified, 80° C. at the end of the eighth hour.
Still in Table 5, the sample from 1 to 5 refer, for each of the two compounds, to the dry substance while the samples from 6 to 10 refer to the solution or to the aqueous suspension obtained as above specified.
In the case of the wet-treated samples, the final weight was only established on the samples No. 10 brought to dryness at 60° C. under vacuum after an 8-hour heating.

[2] = system: histamine-induced bronchial spasm; experiment: Bronchial spasm due to histamine aerosol in the guinea-pig; type: in vivo, spotted guinea-pigs, male, Morini strain; parameters: key to time of resistance to the spasm, significance vs. controls (S): h.s.: highly significant; details: 50 mg/kg; for time of resistance to the spasm, significance vs. controls (S): one hour; for time of resistance to the spasm (E, mean ± standard error): one hour after treatment, control 114.1 ± 5.4
Description: Thirty spotted guinea-pigs, male, Morini strain, 400-500 g bodyweight, were used for the investigation, subdivided into 5 lots, each consisting of 6 animals. The animals were singly placed in a tightly sealed plexiglas cage into which a 0.1 percent aqueous solution of histamine hydrochloride was aerosolized. The time of resistance to the spasm was calculated from the moment of introduction into the cage up to the time of the appearance of the dyspnea crisis.
Group 1: controls with no treatment
In any case, the dose was 50 mg/kg.

[3] = system: SO2-induced experimental bronchitis; experiment: Experimental bronchitis in the rat (SO2 inhalation); type: in vivo, male rats, Sprague-Dawley strain; parameters: key to Macroscopic Examination, significance vs. controls (S) / Visualization of the bronchial tract, significance vs. controls (S) / Microscopic Examination, significance vs. controls (S): h.s.: highly significant; details: 50 mg/kg; for Visualization of the bronchial tract score (E, mean ± standard error): control 2.50 ± 0.26; for Microscopic Examination score (E, mean ± standard error): control 2.75 ± 0.16
Description: For the purpose 40 male rats, Sprague-Dawley strain, 320-370 grams, subdivided into 4 groups each consisting of 10 elements were subjected to the following treatments:
Group 1: poisoning treatment (SO2)
For the poisoning-induction the animals were subjected to a constant air flow containing SO2 at a 0.03 percent concentration. The poisoning treatment was given for 15 days subjecting the rats, 2 hours daily, to an inhalation of SO2 for 15-minute periods. […] The animals were killed on the day following the last inhalation.
The lungs were withdrawn together with the trachea, fixed in 10 percent formalin, and subjected to a macroscopic examination, dipped thereafter into the same fixing fluid for 24 hours, and thereafter for one hour in absolute ethanol.
The bronchial tree was thereafter evidenced with alcian blue; moreover, a subsequent staining was made with the Schiff's reagent in order to evidence the muchopolysaccharides.
Each lung was given the following arbitary score:
(1) Macroscopic Examination:
5=large hemorrhagic spots
(2) Visualization of the Bronchial Tree with Alcian Blue:
1=almost uniform staining
3=quite irregular staining.
(3) Bronchopulmonary Alterations at the Microscopic Examination: […]

[4] = system: dog; experiment: Chronic toxicity in the dog; type: in vivo; details: dogs
[5] = system: citric acid-induced experimental bronchitis; experiment: Experimental bronchitis due to citric acid in the guinea-pig; type: in vivo, spotted guinea-pigs, Morini strain; parameters: key to Microscopic Examination (Table 12), significance vs. controls (S) / Visualization of the bronchial tract, significance vs. controls (S) / Microscopic Examination (Table 14), significance vs. controls (S): h.s.: highly significant; Microscopic Examination score (Table 12; E, mean ± standard error) / Visualization of the bronchial tract score (E, mean ± standard error) / Microscopic Examination score (Table 14; E, mean ± standard error): scale not given here; details: 50 mg/kg; for Microscopic Examination score (Table 12; E, mean ± standard error): control 4.00 ± 0.25; for Microscopic Examination score (Table 14; E, mean ± standard error): control 3.00 ± 0.00; for Visualization of the bronchial tract score (E, mean ± standard error): control 2.83 ± 0.16
Description: Twenty-four spotted guinea-pigs, Morini strain, bodyweight 450 grams approximately, were used for the investigation, subdivided into 4 groups, each consisting of 6 animals, subjected to the following treatments:
Group 1: poisoning treatment with citric acid
The poisoning was made introducing the experimental animals into tight-sealed plexiglass cages containing a solution of 7.5 percent citric acid for 15 minutes daily, 6 days weekly, for 4 weeks.
The animals were sacrificed on the day after the last application, and the lungs were subjected to the same treatments and to the same assessments performed with the same scores already used in the case of the rat.

[6] = sample 1, dry, 1 hour 30 minutes
[7] = sample 3, dry, 5 hours 15 minutes
[8] = sample 10, wet, 8 hours, brought to dryness
[9] = group 3, aerosol (so in the source)

Structure (SMILES): CC(SC(=O)c1cccs1)C(=O)NCC(=O)O (stereo not shown) [compound (I), 2-(2-thenoylthio)-propionylglycine]
- Color [1, 6]: white
- Smell [1, 6]: almost absent
- Weight Fin. [1, 6]: 95.4 mg
- Weight Variations [1, 6]: -5.26%
- Color ([1]; sample 2, dry, 3 hours): white
- Weight Fin. ([1]; sample 2, dry, 3 hours): 94.5 mg
- Weight Variations ([1]; sample 2, dry, 3 hours): -5.03%
- Color [1, 7]: white
- Smell [1, 7]: almost absent
- Weight Fin. [1, 7]: 95.1 mg
- Weight Variations [1, 7]: -5.37%
- Color ([1]; sample 4, dry, 8 hours): white
- Smell ([1]; sample 4, dry, 8 hours): almost absent
- Weight Fin. ([1]; sample 4, dry, 8 hours): 94.9 mg
- Weight Variations ([1]; sample 4, dry, 8 hours): -5.74%
- Smell ([1]; sample 5, dry, 8 hours): almost absent
- Weight Fin. ([1]; sample 5, dry, 8 hours): 194.1 mg
- Weight Variations ([1]; sample 5, dry, 8 hours): -3.67%
- Smell ([1]; sample 6, wet): almost absent
- Smell ([1]; sample 7, wet): almost absent
- Smell ([1]; sample 8, wet): almost absent
- Smell ([1]; sample 9, wet): almost absent
- Weight Fin. [1, 8]: 201.3 mg
- Weight Variations [1, 8]: -2.94%
- bronchial-spasm relieving action ([2]; all the assessed routes): remarkable bronchial-spasm relieving action
- time of resistance to the spasm, significance vs. controls (S) ([2]; group 2, orally): h.s.
- time of resistance to the spasm (E, mean ± standard error) ([2]; group 2, orally, before treatment 116.00 ± 8.84): 184.7 ± 14.2 s
- time of resistance to the spasm, significance vs. controls (S) ([2]; group 3, aerosol): h.s.
- time of resistance to the spasm (E, mean ± standard error) ([2]; group 3, aerosol, before treatment 113.00 ± 5.62): 170.3 ± 10.9 s
- time of resistance to the spasm, significance vs. controls (S) ([2]; group 4, intraperitoneally): h.s.
- time of resistance to the spasm (E, mean ± standard error) ([2]; group 4, intraperitoneally, before treatment 112.16 ± 7.9): 187.2 ± 16.1 s
- time of resistance to the spasm, significance vs. controls (S) ([2]; group 5, rectally): h.s.
- time of resistance to the spasm (E, mean ± standard error) ([2]; group 5, rectally, before treatment 117.5 ± 6.39): 178.5 ± 11.9 s
- Macroscopic Examination, significance vs. controls (S) ([3]; group 2, aerosol): h.s.
- Microscopic Examination, significance vs. controls (S) ([3]; group 2, aerosol): h.s.
- Visualization of the bronchial tract, significance vs. controls (S) ([3]; group 2, aerosol): h.s.
- Visualization of the bronchial tract score (E, mean ± standard error) ([3]; group 2, aerosol): 0.87 ± 0.29
- Microscopic Examination score (E, mean ± standard error) ([3]; group 2, aerosol): 0.87 ± 0.29
- Macroscopic Examination, significance vs. controls (S) [3, 9]: h.s.
- Microscopic Examination, significance vs. controls (S) [3, 9]: h.s.
- Visualization of the bronchial tract, significance vs. controls (S) [3, 9]: h.s.
- Visualization of the bronchial tract score (E, mean ± standard error) [3, 9]: 0.87 ± 0.29
- Microscopic Examination score (E, mean ± standard error) [3, 9]: 0.75 ± 0.31
- Macroscopic Examination score (E, mean ± standard error) ([3]; group 3, aerosol (so in the source), control 4.00 ± 0.26): 1.12 ± 0.39
- Macroscopic Examination, significance vs. controls (S) ([3]; group 4, subcutaneous): h.s.
- Microscopic Examination, significance vs. controls (S) ([3]; group 4, subcutaneous): h.s.
- Visualization of the bronchial tract, significance vs. controls (S) ([3]; group 4, subcutaneous): h.s.
- Visualization of the bronchial tract score (E, mean ± standard error) ([3]; group 4, subcutaneous): 0.75 ± 0.31
- Microscopic Examination score (E, mean ± standard error) ([3]; group 4, subcutaneous): 1.00 ± 0.26
- protective action, experimental bronchitis (SO2) ([3]; rat): marked protective action
- chronic toxicity results [4]: optimal
- Microscopic Examination (Table 12), significance vs. controls (S) ([5]; Table 12, group 2, orally): h.s.
- Microscopic Examination score (Table 12; E, mean ± standard error) ([5]; Table 12, group 2, orally): 2.00 ± 0.36
- Microscopic Examination (Table 12), significance vs. controls (S) ([5]; Table 12, group 3, aerosol): h.s.
- Microscopic Examination score (Table 12; E, mean ± standard error) ([5]; Table 12, group 3, aerosol): 2.33 ± 0.49
- Microscopic Examination (Table 12), significance vs. controls (S) ([5]; Table 12, group 4, rectally): h.s.
- Microscopic Examination score (Table 12; E, mean ± standard error) ([5]; Table 12, group 4, rectally): 1.83 ± 0.40
- Microscopic Examination (Table 14), significance vs. controls (S) ([5]; Table 14, group 2, orally): h.s.
- Microscopic Examination score (Table 14; E, mean ± standard error) ([5]; Table 14, group 2, orally): 0.83 ± 0.30
- Microscopic Examination (Table 14), significance vs. controls (S) ([5]; Table 14, group 3, aerosol): h.s.
- Microscopic Examination score (Table 14; E, mean ± standard error) ([5]; Table 14, group 3, aerosol): 1.00 ± 0.36
- Microscopic Examination (Table 14), significance vs. controls (S) ([5]; Table 14, group 4, rectally): h.s.
- Microscopic Examination score (Table 14; E, mean ± standard error) ([5]; Table 14, group 4, rectally): 0.66 ± 0.42
- Visualization of the bronchial tract, significance vs. controls (S) ([5]; group 2, orally): h.s.
- Visualization of the bronchial tract score (E, mean ± standard error) ([5]; group 2, orally): 1.16 ± 0.30
- Visualization of the bronchial tract, significance vs. controls (S) ([5]; group 3, aerosol): h.s.
- Visualization of the bronchial tract score (E, mean ± standard error) ([5]; group 3, aerosol): 1.00 ± 0.36
- Visualization of the bronchial tract, significance vs. controls (S) ([5]; group 4, rectally): h.s.
- Visualization of the bronchial tract score (E, mean ± standard error) ([5]; group 4, rectally): 1.00 ± 0.44
- protective action, experimental bronchitis (citric acid) ([5]; guinea-pig): marked protective action
